# Patent US9273028B2, “Heterocyclic tyrosine kinase inhibitors” (Biogen MA Inc., priority 2010, dated 2016)
# Biological target: T1, BTK (Homo sapiens, UniProt Q06187)
# T1 construct: purchased Upstate 14-552
# Assay: In vitro BTK kinase assay (BTK-POLYGAT-LS)
# Assay type: biochemical
# Details: IC50 (10 uM ATP)
# Experimental: In vitro BTK Kinase Assay
# The purpose of the BTK in vitro assay is to determine compound potency against BTK through the measurement of IC50. […] For a typical assay, a 24 μL aliquot of a ATP/peptide master mix (final concentration; ATP 10 μM, polyGAT 100 nM) in kinase buffer (10 mM Tris-HCl pH 7.5, 10 mM MgCl2, 200 μM Na3PO4, 5 mM DTT, 0.01% Triton X-100, and 0.2 mg/ml casein) is added to each well. […] The assay is incubated for 30 minutes before being stopped with 28 μL of a 50 mM EDTA solution. […] The plate is covered and incubated for 45 minutes at room temperature.
# T1 sequence (Q06187 whole entry): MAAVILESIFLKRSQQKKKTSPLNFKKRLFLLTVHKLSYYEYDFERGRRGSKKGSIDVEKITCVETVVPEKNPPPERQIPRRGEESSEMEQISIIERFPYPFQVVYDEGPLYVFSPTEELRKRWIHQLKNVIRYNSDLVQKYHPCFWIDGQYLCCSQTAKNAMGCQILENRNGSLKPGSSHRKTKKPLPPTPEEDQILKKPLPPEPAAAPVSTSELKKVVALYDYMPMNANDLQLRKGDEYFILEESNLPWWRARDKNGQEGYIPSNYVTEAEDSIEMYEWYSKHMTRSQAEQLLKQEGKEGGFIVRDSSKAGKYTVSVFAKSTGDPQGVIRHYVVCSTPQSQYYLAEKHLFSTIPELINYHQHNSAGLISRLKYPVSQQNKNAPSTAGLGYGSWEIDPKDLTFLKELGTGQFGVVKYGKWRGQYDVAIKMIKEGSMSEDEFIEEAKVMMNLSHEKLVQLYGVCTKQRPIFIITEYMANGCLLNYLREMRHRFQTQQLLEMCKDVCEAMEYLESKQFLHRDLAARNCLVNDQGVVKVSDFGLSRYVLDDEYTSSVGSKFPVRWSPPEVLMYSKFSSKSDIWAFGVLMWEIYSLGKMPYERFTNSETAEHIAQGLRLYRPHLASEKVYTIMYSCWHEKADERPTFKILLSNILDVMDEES
row,IC50 [nM],Structure (SMILES)
1,< 100,O=C(CNc1cc(Cl)cc(Cl)c1)N1CCCC(Nc2ncnc3[nH]ccc23)C1C1CCCC1 (stereo not shown) [Compound 33]
2,1000 to 10000,O=C1CCc2c(ncnc2N2CCC3CCN(C(=O)CNc4cc(Cl)cc(Cl)c4)CC32)N1 (stereo not shown) [Compound 156]
3,< 100,Nc1ncnc(N2CCC3CCN(C(=O)CNc4cc(Cl)cc(Cl)c4)CC32)c1F (stereo not shown) [Compound 112]
4,< 100,CCC[C@@H](Nc1cc(Cl)cc(Cl)c1)C(=O)N1CCC2CCN(c3ncnc4[nH]ccc34)C2C1 (stereo partly shown) [Compound 101]
5,> 10000,N#Cc1c(N)ncnc1N[C@H]1CCCN(C(=O)CNc2cc(Cl)cc(Cl)c2)C1 [Compound 161]
6,100 to 999,C[C@H]1[C@H](Nc2ncnc3[nH]ncc23)CCCN1C(=O)CNc1cc(Cl)cc(Cl)c1 [Compound 30]
7,100 to 999,O=C(CNc1cc(F)cc(Cl)c1)N1CCC[C@@H](Nc2ncnc3[nH]ncc23)C1 [Compound 216]
8,< 100,C[C@@H]1C[C@H](Nc2ncnc3[nH]ncc23)CN(C(=O)CNc2cc(Cl)cc(Cl)c2)C1 [Compound 103]
9,100 to 999,C[C@@H](Nc1cc(Cl)cc(Cl)c1)C(=O)N1CCC[C@H](Nc2ncnc3[nH]ccc23)C1 [Compound 208]
10,> 10000,CN(c1ncnc(N)c1C#N)[C@H]1CCCN(C(=O)CNc2cc(Cl)cc(Cl)c2)C1 [Compound 116]
11,< 100,CN(c1ncnc2[nH]ccc12)C1CCCN(C(=O)CNc2cc(Cl)cc(C(F)(F)F)c2)C1C(F)(F)F (stereo not shown) [Compound 13]
12,> 10000,CCCN(c1ncnc2[nH]ccc12)[C@H]1CCCN(C(=O)CNc2cc(Cl)cc(Cl)c2)C1 [Compound 118]
13,> 10000,O=C(CNc1ccc(Cl)cc1)N1CCC[C@H](Nc2ncnc3[nH]ncc23)C1 [Compound 184]
14,100 to 999,CC(C)CN(CC(C)C)S(=O)(=O)c1ccccc1NCC(=O)N1CCC[C@@H](Nc2ncnc3[nH]ccc23)C1 [Compound 218]
15,> 10000,O=C(CNc1ccccc1F)N1CCC[C@H](Nc2ncnc3[nH]ncc23)C1 [Compound 203]
16,1000 to 10000,O=C(CNc1cc(Cl)cc(Cl)c1)N1CCCC(N(CCN2CCCC2)c2ncnc3[nH]ccc23)C1 (stereo not shown) [Compound 54]
17,> 10000,O=C(Nc1cc(Cl)cc(Cl)c1)C(=O)N1CCCC(Nc2ncnc3[nH]ccc23)C1 (stereo not shown) [Compound 225]
18,100 to 999,O=C(CNc1cc(Cl)cc(Cl)c1)N1CCC[C@H](Nc2ncnc3[nH]cnc23)C1 [Compound 175]
19,1000 to 10000,O=C([C@H](Nc1cc(Cl)cc(Cl)c1)C1CC1)N1CCC[C@H](Nc2ncnc3[nH]ccc23)C1 [Compound 206]
20,< 100,CN(c1ncnc2[nH]ccc12)C1CCCN(C(=O)CNc2cc(Cl)cc(Cl)c2)C1C(F)(F)F (stereo not shown) [Compound 14]
21,> 10000,O=C(CNc1ccccc1C(F)(F)F)N1CCC[C@H](Nc2ncnc3[nH]ccc23)C1 [Compound 197]
22,< 100,CN1CCN(C(=O)c2ccc(-c3cnc4[nH]ccc4c3N[C@H]3CCCN(C(=O)CNc4cc(Cl)cc(Cl)c4)C3)cc2)CC1 [Compound 1]
23,1000 to 10000,O=C(CNc1cc(F)cc(C(F)(F)F)c1)N1CCC[C@H](Nc2ncnc3[nH]ncc23)C1 [Compound 177]
24,1000 to 10000,CN(c1ncnc2[nH]ccc12)[C@@H]1CCN(C(=O)CNc2cc(Cl)cc(Cl)c2)C1 [Compound 127]
25,1000 to 10000,CN(c1ncnc2[nH]ccc12)C1CC2CC1N(C(=O)CNc1cc(Cl)cc(Cl)c1)C2 (stereo not shown) [Compound 163]
26,< 100,NC(=O)c1cnc2[nH]ccc2c1N[C@@H]1CCCN(C(=O)CNc2cc(Cl)cc(Cl)c2)[C@@H]1C(F)(F)F [Compound 227]
27,> 10000,O=C(CNc1ccc(F)cc1)N1CCC[C@H](Nc2ncnc3[nH]ccc23)C1 [Compound 193]
28,< 100,CC(C)C1C(Nc2ncnc3[nH]ccc23)CCCN1C(=O)CNc1cc(Cl)cc(Cl)c1 (stereo not shown) [Compound 34]

row,IC50 [nM],Structure (SMILES)
1,100 to 999,O=C(CNc1cc(Cl)cc(Cl)c1)N1CC(Nc2ncnc3[nH]ccc23)Cc2ccccc21 (stereo not shown) [Compound 190]
2,< 100,CCC1C(Nc2ncnc3[nH]ncc23)CCCN1C(=O)CNc1cc(F)cc(Cl)c1 (stereo not shown) [Compound 4]
3,> 10000,O=CNc1cnc(Br)cc1N[C@H]1CCCN(C(=O)CN(C=O)c2cc(Cl)cc(Cl)c2)C1 [Compound 121]
4,100 to 999,CN(c1ncnc2[nH]ncc12)[C@H]1CCCN(C(=O)CNc2cc(Cl)cc(Cl)c2)C1 [Compound 212]
5,< 100,CC1C(Nc2ncnc3[nH]ccc23)CCCN1C(=O)CNc1ccccc1S(=O)(=O)N1CCCC1 (stereo not shown) [Compound 79]
6,< 100,O=C(CNc1cc(Cl)cc(Cl)c1)N1CCCC(Nc2ncnc3[nH]ccc23)C1C(F)(F)F (stereo not shown) [Compound 19]
7,> 10000,Nc1ncnc2c1cnn2C1CCCN(C(=O)CNc2cc(Cl)cc(Cl)c2)C1 (stereo not shown) [Compound 232]
8,100 to 999,CN(c1ncnc2[nH]ccc12)[C@@H]1CCCN(C(=O)CNc2cc(F)cc(Cl)c2)C1 [Compound 165]
9,> 10000,CN(c1ncnc2[nH]ncc12)[C@H]1CCCN(C(=O)CNc2cc(C(F)(F)F)cc(C(F)(F)F)c2)C1 [Compound 150]
10,< 100,CN(c1ncnc2[nH]ccc12)C1CCCN(C(=O)CNc2cccc(Cl)c2)C1C(F)(F)F (stereo not shown) [Compound 16]
11,> 10000,CN(c1ncnc2[nH]ccc12)[C@H]1CCN(C(=O)CNc2cc(Cl)cc(Cl)c2)C1 [Compound 132]
12,< 100,CC1C(Nc2ncnc3[nH]ccc23)CCCN1C(=O)CNc1ccccc1S(=O)(=O)N1CCCCC1 (stereo not shown) [Compound 66]
13,> 10000,CN(c1cc(N)ncn1)[C@H]1CCCN(C(=O)CNc2cc(Cl)cc(Cl)c2)C1 [Compound 144]
14,100 to 999,C[C@H]1[C@@H](Nc2ncnc3[nH]ncc23)CCCN1C(=O)CNc1cc(F)cc(Cl)c1 [Compound 27]
15,100 to 999,CC(C)N(c1ncnc2[nH]ccc12)C1CCCN(C(=O)CNc2cc(Cl)cc(Cl)c2)C1 (stereo not shown) [Compound 84]
16,> 10000,O=C(CNc1ccc(C(F)(F)F)cc1)N1CCC[C@H](Nc2ncnc3[nH]ccc23)C1 [Compound 204]
17,100 to 999,CN(C)C(=O)CN(c1ncnc2[nH]ccc12)[C@@H]1CCCN(C(=O)CNc2cc(Cl)cc(Cl)c2)C1 [Compound 40]
18,1000 to 10000,C[C@@H]1[C@@H](Nc2ncnc3[nH]ncc23)CCCN1C(=O)CNc1cc(F)cc(Cl)c1 [Compound 24]
19,> 10000,O=C(CNC1CCCC1)N1CCC[C@H](Nc2ncnc3[nH]ccc23)C1 [Compound 149]
20,> 10000,CC1CCC(NCC(=O)N2CCC[C@H](Nc3ncnc4[nH]ccc34)C2)CC1 (stereo partly shown) [Compound 139]
21,< 100,CN(c1ncnc2[nH]ccc12)C1CCCN(C(=O)CNc2ccccc2)C1C(F)(F)F (stereo not shown) [Compound 15]
22,< 100,O=C(CNc1cc(Cl)cc(Cl)c1)N1CCC[C@@H](Nc2c(-c3ccc(C(=O)N4CCOCC4)cc3)cnc3[nH]ccc23)C1 [Compound 3]
23,< 100,O=C(CNc1cc(Cl)cc(Cl)c1)N1CCC[C@@H](N(CCO)c2ncnc3[nH]ccc23)C1 [Compound 35]
24,1000 to 10000,O=C(CNc1ccccc1)N1CCCC(Nc2ncnc3[nH]ncc23)C1 (stereo not shown) [Compound 179]
25,< 100,O=C(CNc1cc(Cl)cc(Cl)c1)N1CCC[C@@H](Nc2ncnc3[nH]ccc23)[C@H]1C(F)(F)F [Compound 12]
26,< 100,O=C(CNc1cc(Cl)cc(Cl)c1)N1CCC[C@@H](Nc2c(-c3ccc(C(=O)N4CCC(O)CC4)cc3)cnc3[nH]ccc23)C1 [Compound 2]
27,< 100,CC1C(N(C)c2ncnc3[nH]ncc23)CCCN1C(=O)CNc1cc(Cl)cc(Cl)c1 (stereo not shown) [Compound 55]
